Assays:
Homo sapiens = species: Homo sapiens; test: In vitro inhibition of ADP-induced human platelet aggregation.; assay type: functional
[1] = target: T1, Integrin alpha-IIb/beta-3 (Homo sapiens, UniProt P05106+P08514); test: Binding affinity against alpha IIb beta-3 integrin in the presence of L-736622.; assay type: protein-complex assay
Target sequence in this assay (P05106 27-788 limits assumed): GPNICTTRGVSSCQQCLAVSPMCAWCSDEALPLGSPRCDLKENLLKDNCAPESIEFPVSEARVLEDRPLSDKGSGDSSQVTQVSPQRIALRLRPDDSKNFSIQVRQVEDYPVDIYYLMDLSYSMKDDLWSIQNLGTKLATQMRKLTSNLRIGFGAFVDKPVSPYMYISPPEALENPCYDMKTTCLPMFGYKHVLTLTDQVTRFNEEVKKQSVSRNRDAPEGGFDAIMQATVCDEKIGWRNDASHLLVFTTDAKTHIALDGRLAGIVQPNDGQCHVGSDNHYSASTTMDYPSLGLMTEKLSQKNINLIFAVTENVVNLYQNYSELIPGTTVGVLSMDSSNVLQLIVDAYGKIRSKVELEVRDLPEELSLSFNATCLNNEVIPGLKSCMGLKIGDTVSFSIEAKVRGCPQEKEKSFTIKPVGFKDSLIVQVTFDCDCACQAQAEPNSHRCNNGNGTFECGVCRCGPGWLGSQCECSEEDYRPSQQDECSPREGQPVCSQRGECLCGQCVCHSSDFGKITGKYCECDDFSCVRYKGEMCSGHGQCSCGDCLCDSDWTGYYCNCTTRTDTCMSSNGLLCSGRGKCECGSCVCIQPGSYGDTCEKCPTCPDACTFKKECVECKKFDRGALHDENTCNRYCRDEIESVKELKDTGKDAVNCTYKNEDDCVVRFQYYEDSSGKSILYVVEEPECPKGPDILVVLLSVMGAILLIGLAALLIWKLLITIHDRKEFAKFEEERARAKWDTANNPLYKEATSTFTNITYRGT
Target sequence in this assay (P08514 32-887 limits assumed): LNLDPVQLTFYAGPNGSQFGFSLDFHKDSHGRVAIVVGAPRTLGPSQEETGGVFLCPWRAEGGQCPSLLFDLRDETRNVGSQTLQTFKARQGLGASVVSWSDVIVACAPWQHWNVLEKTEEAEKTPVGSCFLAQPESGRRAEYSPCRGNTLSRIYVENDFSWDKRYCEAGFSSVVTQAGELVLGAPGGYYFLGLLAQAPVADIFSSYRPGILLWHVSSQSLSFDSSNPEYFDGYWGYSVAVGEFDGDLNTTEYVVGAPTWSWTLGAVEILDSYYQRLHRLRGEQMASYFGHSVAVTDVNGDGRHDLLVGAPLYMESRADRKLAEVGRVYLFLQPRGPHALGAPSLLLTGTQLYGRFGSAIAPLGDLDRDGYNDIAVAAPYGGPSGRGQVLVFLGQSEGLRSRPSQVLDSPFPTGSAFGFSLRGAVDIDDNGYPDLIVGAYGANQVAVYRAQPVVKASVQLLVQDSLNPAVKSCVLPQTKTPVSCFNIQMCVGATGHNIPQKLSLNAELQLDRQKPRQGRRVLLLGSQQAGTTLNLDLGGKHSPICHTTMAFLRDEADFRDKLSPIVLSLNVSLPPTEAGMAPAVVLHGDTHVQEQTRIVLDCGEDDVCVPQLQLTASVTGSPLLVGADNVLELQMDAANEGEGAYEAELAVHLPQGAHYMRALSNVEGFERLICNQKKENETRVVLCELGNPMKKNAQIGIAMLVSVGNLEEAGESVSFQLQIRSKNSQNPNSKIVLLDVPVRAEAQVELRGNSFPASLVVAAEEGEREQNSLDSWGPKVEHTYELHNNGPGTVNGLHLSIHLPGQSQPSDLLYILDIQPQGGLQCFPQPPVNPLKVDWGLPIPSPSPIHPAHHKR
Target sequence in this assay (P08514 891-1039 limits assumed): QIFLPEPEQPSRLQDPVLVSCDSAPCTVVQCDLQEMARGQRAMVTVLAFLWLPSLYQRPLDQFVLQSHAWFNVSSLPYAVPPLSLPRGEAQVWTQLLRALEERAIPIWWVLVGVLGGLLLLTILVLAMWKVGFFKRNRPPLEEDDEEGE

[2] = target: T1, Integrin alpha-IIb/beta-3; test: Binding affinity against alpha IIb beta-3 integrin by [125I]-L-692,884 displacement.; assay type: protein-complex assay

Compound | IC50 (Homo sapiens) [nM] | Kd [1] [nM] | ED50 [2] [nM]
O=C(NC[C@H](NS(=O)(=O)c1cccnc1)C(=O)O)c1ccc2c(c1)C(=O)N(CCC1CCNCC1)C2 | 15 | 3.6 | 0.38
O=C(NC[C@H](NS(=O)(=O)c1ccccc1C(=O)O)C(=O)O)c1ccc2c(c1)C(=O)N(CCC1CCNCC1)C2 | 15 | 6.4 | 0.83
CCCCNC(=O)N[C@@H](CNC(=O)c1ccc2c(c1)C(=O)N(CCC1CCNCC1)C2)C(=O)O | 16 | 6.9 | 1.4
CCCCS(=O)(=O)N[C@@H](CNC(=O)c1ccc2c(c1)C(=O)N(CCC1CCNCC1)C2)C(=O)O (stereo in doubt) [listing 1 of 2 here] |  |  | 5.5
O=C(O)CCNC(=O)c1ccc2c(c1)C(=O)N(CCC1CCNCC1)C2 |  | 100 | 
O=C(NC[C@H](NS(=O)(=O)c1ccccc1)C(=O)O)c1ccc2c(c1)C(=O)N(CCC1CCNCC1)C2 | 8 | 3.7 | 0.33
CCCCS(=O)(=O)N[C@@H](CNC(=O)c1ccc2c(c1)C(=O)N(CCC1CCNCC1)C2)C(=O)O (stereo in doubt) [listing 2 of 2 here] | 14 | 8.8 | 
CCCCCC(=O)N[C@@H](CNC(=O)c1ccc2c(c1)C(=O)N(CCC1CCNCC1)C2)C(=O)O | 13 | 6.4 | 4.2
O=C(NC[C@H](NS(=O)(=O)c1cccs1)C(=O)O)c1ccc2c(c1)C(=O)N(CCC1CCNCC1)C2 | 7 | 7.7 | 0.53
O=C(NC[C@H](NS(=O)(=O)Cc1ccccc1)C(=O)O)c1ccc2c(c1)C(=O)N(CCC1CCNCC1)C2 | 4 | 12 | 1.6
CC(C)CS(=O)(=O)N[C@@H](CNC(=O)c1ccc2c(c1)C(=O)N(CCC1CCNCC1)C2)C(=O)O | 9 | 7.5 | 1.2
O=C(O)c1ccc(S(=O)(=O)N[C@@H](CNC(=O)c2ccc3c(c2)C(=O)N(CCC2CCNCC2)C3)C(=O)O)cc1 | 7 | 15 | 2
CCCCCS(=O)(=O)N[C@@H](CNC(=O)c1ccc2c(c1)C(=O)N(CCC1CCNCC1)C2)C(=O)O | 9 | 7.6 | 0.88
CCCCS(=O)(=O)N[C@@H](Cc1ccc(OCCCCC2CCNCC2)cc1)C(=O)O [TIROFIBAN] | 11 |  | 0.97
CCCCS(=O)(=O)N[C@@H](CNC(=O)c1ccc2c(c1)C(=O)N(CCC1CCNCC1)C2)C(=O)O (stereo in doubt; 13) [listing 1 of 2 here] |  |  | 1.3
CCOCCS(=O)(=O)N[C@@H](CNC(=O)c1ccc2c(c1)C(=O)N(CCC1CCNCC1)C2)C(=O)O | 8 | 5.1 | 1.1
CCCCS(=O)(=O)N[C@@H](CNC(=O)c1ccc2c(c1)C(=O)N(CCC1CCNCC1)C2)C(=O)O (stereo in doubt; 13) [listing 2 of 2 here] |  | 4.4 | 
O=C(NCc1ccccc1)N[C@@H](CNC(=O)c1ccc2c(c1)C(=O)N(CCC1CCNCC1)C2)C(=O)O | 10 | 6 | 1.2
CS(=O)(=O)N[C@@H](CNC(=O)c1ccc2c(c1)C(=O)N(CCC1CCNCC1)C2)C(=O)O | 14 | 7.4 | 3.4
CCCCNS(=O)(=O)N[C@@H](CNC(=O)c1ccc2c(c1)C(=O)N(CCC1CCNCC1)C2)C(=O)O | 19 | 21 | 2.8

Reference: ChEMBL document CHEMBL1129711, “Nonpeptide GPIIb/IIIa inhibitors. 10. Centrally constrained alpha-sulfonamides are potent inhibitors of platelet aggregation” (Bioorg Med Chem Lett, 1996)
